Results from patent US5874461A, “Use of Nebivolol as an anti-atherogenic” (priority 1995, dated 1999).

Test system: rats (age-associated vascular pathology)
Experiment: In-vivo anti-atheromatic effect: 24-month oral study in rats, histological score of vascular degeneration/aging
Protocol: In order to verify whether nebivolol had any effects on age-associated vascular pathology, a number of rats were administered nebivolol orally at dosages of 0 (carrier-only), 2.5, 10 and 40 mg/kg during 24 months. As a carrier there was used 2-hydroxypropyl-β-cyclodextrin which improves the bioavailability of nebivolol. At each dose a male and a female group of 50 were entered in the 2 year study. […] The test animals were autopsied and observed for histological non-neoplastic changes.
vasculopathy of the abdominal mesothelia, pancreas, and testis,
focal and diffuse hyperplasia of the parathyroid gland, and
the renal histology, in particular the number of basophilic tubuli, evidence for chronic renal disease and for mineralization.
Histopathological observations received a score from 0 to 3 as follows:
0: no histological change
1: slight histological change
2: moderate histological change
3: severe histological change.
For each observation a mean score was calculated. The observed ratings were analysed using the Mann-Whitney U test (two tailed probability) to detect statistically significant differences between the control groups and the treated groups. Significance computed by Mann-Whitney U test two-tailed: * p<0.05 ** p<0.01 p<0.001.

[1] = females, 2.5 mg/kg oral, 24 months
[2] = females, 10 mg/kg oral, 24 months
[3] = females, 40 mg/kg oral, 24 months
[4] = males, 2.5 mg/kg oral, 24 months
[5] = males, 10 mg/kg oral, 24 months
[6] = males, 40 mg/kg oral, 24 months

## O[C@H](CNC[C@@H](O)[C@H]1CCc2cc(F)ccc2O1)[C@@H]1CCc2cc(F)ccc2O1 (relative stereo) [nebivolol, (RSSS) and (SRRR) α,α'-iminobis(methylene)bis[6-fluoro-2-chroman-methanol]]
Chronic treatment, versus control animals
  normal aging of the vascular system: the normal aging of the vascular system as seen in the control animals is suppressed
[1]
  Kidney: basophilic tubuli, mean score (0-3): 0.18
  Kidney: chronic disease, mean score (0-3): 0.88
  Kidney: mineralization (parenchum/pelvis), mean score (0-3): 0.84
  Pancreas: vasculopathy, mean score (0-3): 0.04
[2]
  Kidney: basophilic tubuli, mean score (0-3): 0.18
  Kidney: chronic disease, mean score (0-3): 0.92
  Kidney: mineralization (parenchum/pelvis), mean score (0-3): 0.64
  Pancreas: vasculopathy, mean score (0-3): 0.02
[3]
  Kidney: basophilic tubuli, mean score (0-3): 0.42
  Kidney: chronic disease, mean score (0-3): 0.78
  Kidney: mineralization (parenchum/pelvis), mean score (0-3): 0.14
  Pancreas: vasculopathy, mean score (0-3): 0.00
[4]
  Kidney: basophilic tubuli, mean score (0-3): 0.18
  Kidney: chronic disease, mean score (0-3): 1.32
  Pancreas: vasculopathy, mean score (0-3): 0.04
  Parathyroid gland: diffuse hyperplasia, mean score (0-3): 0.08
  Parathyroid gland: focal hyperplasia, mean score (0-3): 0.04
  Testis: vasculopathy, mean score (0-3): 0.20
[5]
  Kidney: basophilic tubuli, mean score (0-3): 0.18
  Kidney: chronic disease, mean score (0-3): 1.24
  Pancreas: vasculopathy, mean score (0-3): 0.02
  Parathyroid gland: diffuse hyperplasia, mean score (0-3): 0.15
  Parathyroid gland: focal hyperplasia, mean score (0-3): 0.02
  Testis: vasculopathy, mean score (0-3): 0.08
[6]
  Abdominal mesothelia: vasculopathy, mean score (0-3): 0.00
  Kidney: basophilic tubuli, mean score (0-3): 0.60
  Kidney: chronic disease, mean score (0-3): 0.66
  Pancreas: vasculopathy, mean score (0-3): 0.00
  Parathyroid gland: diffuse hyperplasia, mean score (0-3): 0.02
  Parathyroid gland: focal hyperplasia, mean score (0-3): 0.00
  Testis: vasculopathy, mean score (0-3): 0.02
